{"source": "patent US9556417B2", "about": "“Reprogramming of cells to a new fate” (The Scripps Research Institute, priority 2010, dated 2017)", "key": {"Wnt/β-catenin pathway": {"test_system": "Wnt/β-catenin pathway", "details": "cited from earlier work"}, "[1]": {"test_system": "tail-tip fibroblasts (TTFs)", "assay": "Neural transdifferentiation of TTFs in presence of JAK inhibitor", "assay_type": "cell-based, mouse", "details": "JAK inhibitor 1 0.5 μM from day 4 onward", "protocol": "For TTF reprogramming, Lentivirus supernatants were produced and harvested as previously described (Takahashi K. et al. Cell 131(5):861-872 (2007)). Briefly, 293T cells (Invitrogen) were plated at 5×10^6 cells per 100 mm dish and incubated overnight in a 37° C. incubator. Cells were transfected with 4 μg pHAGE2-TetOminiCMV-STEMCCA (29) or FUW-M2rtTA (Addgene) along with packaging mix (1 μg psPAX2 and 3 μg pMD2.G) (Addgene) and FuGENE 6 Transfection Reagent (Roche), according to the manufacturer's instructions. The cells were then cultured in a 32° C. degree incubator, after which supernatants were collected at 48 and 72 hours (post-transfection) and filtered through a 0.45 μm filter (Millipore) before use. TTFs were prepared as previously described (Takahashi, K., et al., Cell 126(4):663-676 (2006)). Briefly, tails (only the final third) were cut into small pieces (less than 0.5 cm) and grown on gelatine-coated plates in MEF medium. Cells that migrated out of the tissue were transferred into new dish and used after one more passage (p3). After two rounds of transduction with STEMCCA and rtTA expressing virus, cells were plated on Geltrex-coated dishes at 2×10^4 cells/cm^2 and reprogrammed as described above. JAK inhibitor 1 (Calbiochem) was added from day 4 onward at 0.5 μM during TTF transdifferentiation. […]"}, "R1 ES cells": {"test_system": "R1 ES cells", "assay": "Serum-free monolayer cardiac differentiation of ES cells, beating colonies", "assay_type": "cell-based, mouse", "details": "early treatment window", "protocol": "Having identified the first serum-free monolayer condition for cardiac differentiation of ES cells, we sought to test its efficacy as a platform to discover regulators of cardiomyogenesis. A collection of approximately 200 small molecules and growth factors reported to be influential in developmental processes were assembled. R1 ES cells were grown and plated for differentiation on Matrigel in 24-well plates using the media and growth factors described above. The screening collection was then added and removed from each well at specific time points in order to account for different developmental time windows. The collection was screened at days 0-2, 2-5, and 5-7.\nCells are plated at a density of 200,000 cells/well of a 6-well plate in 2.5 ml of ESGM. 6-well plates are coated overnight at 4° C. with 1 ml of Matrigel (BD Bioscience) diluted 50× from stock concentration. 24 hours after plating, or after sufficient colony size was achieved, cells are switched into chemically defined medium (CDM) and treated with 4 uM BIO (Calbiochem) and 20 ng/ml BMP-4 (R&D). CDM contains RPMI 1640, 0.5×N2, 1×B27 (without Vitamin A), 0.5× Glutamax, 0.55 mM beta-mercaptoethanol, 1× non-essential amino acids, 1× nucleosides. At Day 2, medium is changed, and again CDM containing 4 uM BIO with 20 ng/ml BMP-4 is added to the cells. At Day 5, cells are washed once with PBS and medium is changed to CDM containing 100 ng/ml Dkk-1 (R&D). At Day 7, medium is changed, and again CDM containing 100 ng/ml Dkk-1 is added to the cells. At Day 10, cells are trypsinized (0.05% trypsin) (Approximately 5 minutes at 37° C., or until cells begin to detach) and replated onto gelatin coated 6-well plates in CDM with no additional growth factors. By this time, the cells will have formed tight colonies that will be difficult to disrupt (Supplementary FIG. 2b). […] The trypsin is used primarily to detach the cells rather than to dissociate them to a single cell suspension. It is preferable for the colonies to remain intact. The trypsin is briefly quenched with MEF media, cells are centrifuged, and resuspended in CDM for plating. Medium is refreshed as needed to remove dead cells and debris (every 1 to 2 days)."}, "Brachyury-EGFP ES cell": {"test_system": "Brachyury-EGFP ES cell", "assay": "FACS analysis of mesodermal markers (Brachyury-GFP, Flk-1)", "assay_type": "cell-based, mouse", "details": "treated day 0-2, harvested day 4.5", "protocol": "To ascertain what role calcium and cAMP might be playing in this early stage of cardiac differentiation, FACS was carried out using two markers involved in mesodermal fates. Specifically, a Brachyury-EGFP ES cell (a gift from the Keller lab) was used to identify cells progressing to a primitive streak type population. Further, cells were stained using a Flk-1 antibody to further delineate axial location of the primitive streak type cells. Briefly, cells were treated with small molecules for day 0-2, and harvested at day 4.5 for analysis.\nCells were harvested into a single cell suspension by treatment with 0.05% trypsin, quenched with serum containing medium, and resuspended in FACS buffer: lx PBS (Ca/Mg^2+ free), 1 mM EDTA, 25 mM HEPES pH 7.0, 1% Fetal Bovine Serum. Cells were then filtered with […], and stored at 4° C. until analysis."}, "[2]": {"test_system": "mouse embryonic fibroblasts (MEFs)", "assay": "Direct cardiac reprogramming of fibroblasts, contracting patch/colony counts", "assay_type": "cell-based", "details": "standard reprogramming media with LIF for the first nine days", "source_text": "Having successfully initiated the early cardiogenic program in MEFs, we next sought to induce robust activation of mid-stage cardiac gene expression and to ultimately generate spontaneously contracting patches of cardiac cells, a hallmark of terminal differentiation that is easily observed and quantified. To this end, we treated three-factor transduced MEFs with chemically defined media (CDM) as well as cytokines and small molecules that might enhance cardiogenesis by regulating TGFβ, bone morphogenetic protein (BMP), Hedgehog, Wnt, or Notch pathway activity. Treatments were done individually and in combination, and at different times during the reprogramming process. Despite the general unsuitability of the resulting protocol for iPSC generation, we also explored whether small-molecule inhibition of JAK-STAT (Janus kinase-signal transducer and activator of transcription), PI3K (phosphatidylinositol 3-kinase), or Wnt signalling during the early stages of the protocol might boost the effectiveness of cardiomyogenesis by preventing even a small number of iPSC intermediates from forming. Finally, we experimented with a more gradual transition between different media by lowering FBS concentration step-wise in increments of 1-4% over 3-6 days (immediately prior to switching to CDM). […] During this initial nine-day period, the small-molecule JAK inhibitor JD is continuously kept in the media at a concentration of 0.5 μM. From day nine onwards, the cells are cultured in CDM, with the cardioinductive growth factor BMP4 (Snyder, A. et al., J Cell Biochem 93, 224-32 (2004)) being added at 20 ng/ml for the first five days (FIG. 1b).\nAll MEFs (129S2/SvPasCrlf) were derived according to WiCell protocols (https://www.wicell.org/index.php?option=com_docman&task=doc_download&gid=687). TTFs were a kind gift of Dr. Hans Schöler. Secondary MEFs were derived as previously described (Wernig, M. et al., Nat Biotechnol 26, 916-24 (2008)). All results were initially obtained and confirmed with the Nebulette-LacZ MEFs; to ensure reproducibility and minimize inter-experimental variation, reported results almost exclusively derive from experiments utilizing secondary dox-inducible MEFs using the optimum induction period. MEFs were initially passaged on gelatin-coated (0.1% for 2 hours at 37° C.) tissue culture dishes in DMEM supplemented with 10% FBS, 2 mM Glutamax and 0.1 mM NEAA (all components from Invitrogen, Carlsbad, Calif.). Prior to viral transduction, cells were seeded onto Matrigel (BD Biosciences, Franklin Lakes, N.J.) or Geltrex (Invitrogen)-coated plates (1:40, overnight at 4° C.) at 3.5×10^4 cells per well of a six well plate (7×10^4 cells for TTFs) in the same media. […]"}, "secondary MEFs": {"test_system": "secondary MEFs", "assay": "Neural transdifferentiation of secondary MEFs with exposure to LIF-containing medium", "assay_type": "cell-based, mouse", "protocol": "NGFP1 Dox-inducible iPS cells (Hanna J. et al., Nature (2009); Hanna, J. et al., Cell 133(2):250-264 (2008)) (Stemgent) were injected into C57BL/6 blastocysts and implanted into surrogate mice (CD1, Harlan). Chimeric embryos were isolated at E12.5-13.5. Heads, developing organs and spinal cords were carefully removed from the embryos and MEFs were prepared and selected as previously described (Hanna J. et al., Nature (2009); Wernig, M. et al., Nat Biotechnol 26(8):916-924 (2008); Hanna, J. et al., Cell 133(2):250-264 (2008)). For reprogramming, secondary MEFs (p3-4) were plated on Geltrex-coated culture dishes at 1.5-2×10^4 cells/cm^2 in MEF medium (Dullbecco's modified Eagle's medium supplemented with 10% fetal bovine serum, 0.1 mM non-essential amino acids, and 2 mM Glutamax). Doxycycline (Sigma-Aldrich, 2-8 μg/ml) treatment was initiated the next morning (Day 0) and continued until the designated day(s). Cells were cultured in MEF medium for an additional day and changed to reprogramming initiation medium (RepM-Ini; knock-out DMEM supplemented with 10% knock-out serum replacer, 5% FBS, 0.1 mM NEAA, 2 mM Glutamax, and 0.055 mM β-mercaptoethanol) for three days. For neural stem/progenitor reprogramming, the medium was changed into neural reprogramming medium (RepM-Neural; Advanced DMEM/F12 and Neurobasal medium were mixed by 1:1 and supplemented with 0.05% bovine serum albumin, 1×N2, 1×B27, 2 mM Glutamax, 0.11 mM β-mercaptoethanol, 20 ng/ml FGF2, 2 ng/ml FGF4, and 20 ng/ml EGF). RepM-Pluri is the same as RepM-Ini, with the addition of 1000 units/ml LIF (Millipore).\nTotal RNA was extracted from samples at the designated time points using the RNeasy Plus Mini Kit with QiaShredder (Qiagen). One microgram of total RNA per sample was reverse-transcribed using the iScript cDNA synthesis kit (Bio-Rad) and the cDNA was diluted with 130 ul of water. 1/50 of the diluted cDNA was used for quantitative PCR with iQ SYBR Green Supermix on the CFX96 system (Bio-Rad). All qPCR reactions were done in duplicate or triplicate, and the expression data were normalized to both Gapdh and β-actin expression using CFX manager software (Bio-Rad). All primer sequences are listed in previous publications (Hanna J. et al., Nature (2009); Wernig, M. et al., Nat Biotechnol 26(8):916-924 (2008); Greber, B. et al., Cell Stem Cell 6(3):215-226 (2010)).\nSamples were washed once with D-PBS (Invitrogen, without Ca^2+ and Mg^2+) and were fixed with a 4% pure-formaldehyde solution (Electron Microscopy Sciences) with 0.15% picric acid (Sigma-Aldrich) in D-PBS for 20 min, followed by three washes with D-PBS. Blocking and permeabilization were done with a 3% BSA (Jackson ImmunoResearch) and 0.3% Triton X-100 (Sigma-Aldrich) solution in D-PBS for 1 hr at room temperature. […]"}}, "data": [{"compound": "Cc1ccc2nc(NC(=O)CSc3nc4c(c(=O)n3-c3ccccc3)SCC4)sc2c1", "note": "[IWP-2, 2-(3,4,6,7-tetrahydro-4-oxo-3-phenylthieno[3,2-d]pyrimidin-2-ylthio)-N-(6-methylbenzo[d]thiazol-2-yl)acetamide]", "values": [{"measurement": "IC50", "setting": "Wnt/β-catenin pathway", "value": 0.027, "unit": "µM"}]}, {"compound": "CC(C)(C)c1nc2c3ccc(F)cc3c3c(=O)[nH]ccc3c2[nH]1", "note": "[JAK inhibitor1]", "values": [{"measurement": "Pax6 expression of colonies", "setting": "[1]", "value": "all remaining colonies homogeneously expressed Pax6"}, {"measurement": "decrease in number of colonies", "setting": "[1]", "value": "around 30%"}]}, {"compound": "CC(C)NCC(O)COc1cccc2ccccc12", "note": "(centres unmarked) [propranolol]", "values": [{"measurement": "cardiac differentiation / percentage of beating colonies", "setting": "R1 ES cells", "value": "greatly decreased cardiac potential"}, {"measurement": "Flk-1 positive portion of GFP+ cells", "setting": "Brachyury-EGFP ES cell", "value": "decreased"}]}, {"compound": "LIF: leukaemia inhibitory factor, added to standard reprogramming medium", "values": [{"measurement": "decline in beating colony number", "setting": "[2]", "value": "~25", "unit": "fold"}, {"measurement": "onset of beating", "setting": "[2]", "value": "four-day delay"}, {"measurement": "gene expression of Sox1, Pax6, Nanog, Rex1", "setting": "secondary MEFs; day 9", "value": "down-regulation of Sox1 and Pax6 with concomitant up-regulation of Nanog and Rex1"}, {"measurement": "number of PLZF-expressing colonies", "setting": "secondary MEFs; day nine, as little as one day LIF exposure", "value": "clearly decreased"}, {"measurement": "Sox17, T, and FGF5 expression", "setting": "secondary MEFs; days 9, 11, and 13", "value": "increased"}, {"measurement": "number of SSEA1-expressing cells", "setting": "secondary MEFs; flow cytometry", "value": "increases"}]}]}
